{"source": "ChEMBL document CHEMBL1201862", "about": "“PubChem BioAssay data set” (2004)", "assay_in_all_cases": "inhibition of tumour cell growth, NCI panel, 48 h", "key": {"786-0": {"system": "786-0"}, "A498": {"system": "A498"}, "A549": {"system": "A549"}, "ACHN": {"system": "ACHN"}, "CAKI-1": {"system": "CAKI-1"}, "CCRF-CEM": {"system": "CCRF-CEM"}, "COLO 205": {"system": "COLO 205"}, "DLD-1": {"system": "DLD-1"}, "DMS-114": {"system": "DMS-114"}, "DMS-273": {"system": "DMS-273"}, "EKVX": {"system": "EKVX"}, "HCT-116": {"system": "HCT-116"}, "HCT-15": {"system": "HCT-15"}, "HOP-18": {"system": "HOP-18"}, "HOP-62": {"system": "HOP-62"}, "HOP-92": {"system": "HOP-92"}, "HT-29": {"system": "HT-29"}, "IGROV-1": {"system": "IGROV-1"}, "K562": {"system": "K562"}, "KM-20L2": {"system": "KM-20L2"}, "KM12": {"system": "KM12"}, "LOX IMVI": {"system": "LOX IMVI"}, "M19-MEL": {"system": "M19-MEL"}, "Malme-3M": {"system": "Malme-3M"}, "NCI-H23": {"system": "NCI-H23"}, "NCI-H460": {"system": "NCI-H460"}, "OVCAR-3": {"system": "OVCAR-3"}, "OVCAR-4": {"system": "OVCAR-4"}, "OVCAR-5": {"system": "OVCAR-5"}, "OVCAR-8": {"system": "OVCAR-8"}, "RPMI-8226": {"system": "RPMI-8226"}, "RXF 393": {"system": "RXF 393"}, "SF-268": {"system": "SF-268"}, "SF-295": {"system": "SF-295"}, "SF-539": {"system": "SF-539"}, "SK-MEL-28": {"system": "SK-MEL-28"}, "SK-MEL-2": {"system": "SK-MEL-2"}, "SK-MEL-5": {"system": "SK-MEL-5"}, "SN12C": {"system": "SN12C"}, "SNB-19": {"system": "SNB-19"}, "SNB-75": {"system": "SNB-75"}, "SNB-78": {"system": "SNB-78"}, "SR": {"system": "SR"}, "SW-620": {"system": "SW-620"}, "TK-10": {"system": "TK-10"}, "U-251": {"system": "U-251"}, "UACC-257": {"system": "UACC-257"}, "UACC-62": {"system": "UACC-62"}, "HCC 2998": {"system": "HCC 2998"}, "HL-60": {"system": "HL-60"}, "LXFL 529": {"system": "LXFL 529"}, "MOLT-4": {"system": "MOLT-4"}, "NCI-H226": {"system": "NCI-H226"}, "NCI-H522": {"system": "NCI-H522"}, "UO-31": {"system": "UO-31"}, "XF498": {"system": "XF498"}}, "note": "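Following 48 hours of exposure in 96-well plates, responses at five concentrations were used to interpolate endpoints linearly. GI50 is the concentration that inhibits growth by half.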 Active and inactive are the calls of the source. Cut-off read from the data, not from the text of the source: active = GI50 up to about 1.1 µM and inactive = higher.", "data": [{"smiles": "C=CCCc1cc(OC)ccc1CN(C)C(C)(C)CO", "values": [{"measurement": "GI50", "setting": "786-0", "result": "> 100 µM (inactive)"}, {"measurement": "GI50", "setting": "A498", "result": "> 100 µM (inactive)"}, {"measurement": "GI50", "setting": "A549", "result": "> 100 µM (inactive)"}, {"measurement": "GI50", "setting": "ACHN", "result": "> 100 µM (inactive)"}, {"measurement": "GI50", "setting": "CAKI-1", "result": "> 100 µM (inactive)"}, {"measurement": "GI50", "setting": "CCRF-CEM", "result": "> 100 µM (inactive)"}, {"measurement": "GI50", "setting": "COLO 205", "result": "> 100 µM (inactive)"}, {"measurement": "GI50", "setting": "DLD-1", "result": "> 100 µM (inactive)"}, {"measurement": "GI50", "setting": "DMS-114", "result": "> 100 µM (inactive)"}, {"measurement": "GI50", "setting": "DMS-273", "result": "> 100 µM (inactive)"}, {"measurement": "GI50", "setting": "EKVX", "result": "> 100 µM (inactive)"}, {"measurement": "GI50", "setting": "HCT-116", "result": "> 100 µM (inactive)"}, {"measurement": "GI50", "setting": "HCT-15", "result": "> 100", "unit": "µM"}, {"measurement": "GI50", "setting": "HOP-18", "result": "> 100 µM (inactive)"}, {"measurement": "GI50", "setting": "HOP-62", "result": "> 100 µM (inactive)"}, {"measurement": "GI50", "setting": "HOP-92", "result": "> 100 µM (inactive)"}, {"measurement": "GI50", "setting": "HT-29", "result": "> 100 µM (inactive)"}, {"measurement": "GI50", "setting": "IGROV-1", "result": "> 100 µM (inactive)"}, {"measurement": "GI50", "setting": "K562", "result": "> 100 µM (inactive)"}, {"measurement": "GI50", "setting": "KM-20L2", "result": "> 100 µM (inactive)"}, {"measurement": "GI50", "setting": "KM12", "result": "> 100 µM (inactive)"}, {"measurement": "GI50", "setting": "LOX IMVI", "result": "> 100 µM (inactive)"}, {"measurement": "GI50", "setting": "M19-MEL", "result": "> 100 µM (inactive)"}, {"measurement": "GI50", "setting": "Malme-3M", "result": "> 100 µM (inactive)"}, {"measurement": "GI50", "setting": "NCI-H23", "result": "> 100 µM (inactive)"}, {"measurement": "GI50", "setting": "NCI-H460", "result": "> 100 µM (inactive)"}, {"measurement": "GI50", "setting": "OVCAR-3", "result": "> 100 µM (inactive)"}, {"measurement": "GI50", "setting": "OVCAR-4", "result": "> 100 µM (inactive)"}, {"measurement": "GI50", "setting": "OVCAR-5", "result": "> 100 µM (inactive)"}, {"measurement": "GI50", "setting": "OVCAR-8", "result": "> 100 µM (inactive)"}, {"measurement": "GI50", "setting": "RPMI-8226", "result": "> 100 µM (inactive)"}, {"measurement": "GI50", "setting": "RXF 393", "result": "> 100 µM (inactive)"}, {"measurement": "GI50", "setting": "SF-268", "result": "> 100 µM (inactive)"}, {"measurement": "GI50", "setting": "SF-295", "result": "> 100 µM (inactive)"}, {"measurement": "GI50", "setting": "SF-539", "result": "> 100 µM (inactive)"}, {"measurement": "GI50", "setting": "SK-MEL-28", "result": "> 100 µM (inactive)"}, {"measurement": "GI50", "setting": "SK-MEL-2", "result": "> 100 µM (inactive)"}, {"measurement": "GI50", "setting": "SK-MEL-5", "result": "> 100 µM (inactive)"}, {"measurement": "GI50", "setting": "SN12C", "result": "> 100 µM (inactive)"}, {"measurement": "GI50", "setting": "SNB-19", "result": "> 100 µM (inactive)"}, {"measurement": "GI50", "setting": "SNB-75", "result": "85.7 µM (inactive)"}, {"measurement": "GI50", "setting": "SNB-78", "result": "> 100 µM (inactive)"}, {"measurement": "GI50", "setting": "SR", "result": "> 100 µM (inactive)"}, {"measurement": "GI50", "setting": "SW-620", "result": "> 100 µM (inactive)"}, {"measurement": "GI50", "setting": "TK-10", "result": "> 100 µM (inactive)"}, {"measurement": "GI50", "setting": "U-251", "result": "> 100 µM (inactive)"}, {"measurement": "GI50", "setting": "UACC-257", "result": "> 100 µM (inactive)"}, {"measurement": "GI50", "setting": "UACC-62", "result": "> 100 µM (inactive)"}]}, {"smiles": "NC(=O)N1N=C2c3ccccc3SC[C@H]2[C@@H]1c1ccccc1", "values": [{"measurement": "GI50", "setting": "786-0", "result": "29 µM (inactive)"}, {"measurement": "GI50", "setting": "A498", "result": "35.1 µM (inactive)"}, {"measurement": "GI50", "setting": "A549", "result": "37.3 µM (inactive)"}, {"measurement": "GI50", "setting": "ACHN", "result": "33.3 µM (inactive)"}, {"measurement": "GI50", "setting": "CCRF-CEM", "result": "23.1 µM (inactive)"}, {"measurement": "GI50", "setting": "COLO 205", "result": "20.7 µM (inactive)"}, {"measurement": "GI50", "setting": "DLD-1", "result": "21.4 µM (inactive)"}, {"measurement": "GI50", "setting": "DMS-114", "result": "23.7 µM (inactive)"}, {"measurement": "GI50", "setting": "EKVX", "result": "35 µM (inactive)"}, {"measurement": "GI50", "setting": "HCC 2998", "result": "26.9 µM (inactive)"}, {"measurement": "GI50", "setting": "HCT-116", "result": "13.5 µM (inactive)"}, {"measurement": "GI50", "setting": "HCT-15", "result": 23.9, "unit": "µM"}, {"measurement": "GI50", "setting": "HL-60", "result": "21.3 µM (inactive)"}, {"measurement": "GI50", "setting": "HOP-62", "result": "25.6 µM (inactive)"}, {"measurement": "GI50", "setting": "HT-29", "result": "19.7 µM (inactive)"}, {"measurement": "GI50", "setting": "IGROV-1", "result": "26.6 µM (inactive)"}, {"measurement": "GI50", "setting": "K562", "result": "24.2 µM (inactive)"}, {"measurement": "GI50", "setting": "KM-20L2", "result": "20.2 µM (inactive)"}, {"measurement": "GI50", "setting": "KM12", "result": "> 10 µM (inactive)"}, {"measurement": "GI50", "setting": "LOX IMVI", "result": "17.5 µM (inactive)"}, {"measurement": "GI50", "setting": "LXFL 529", "result": "26.5 µM (inactive)"}, {"measurement": "GI50", "setting": "M19-MEL", "result": "34.6 µM (inactive)"}, {"measurement": "GI50", "setting": "MOLT-4", "result": "23.7 µM (inactive)"}, {"measurement": "GI50", "setting": "Malme-3M", "result": "26.9 µM (inactive)"}, {"measurement": "GI50", "setting": "NCI-H226", "result": "22.2 µM (inactive)"}, {"measurement": "GI50", "setting": "NCI-H23", "result": "35.6 µM (inactive)"}, {"measurement": "GI50", "setting": "NCI-H460", "result": "19.1 µM (inactive)"}, {"measurement": "GI50", "setting": "NCI-H522", "result": "> 10 µM (inactive)"}, {"measurement": "GI50", "setting": "OVCAR-3", "result": "16.9 µM (inactive)"}, {"measurement": "GI50", "setting": "OVCAR-4", "result": "26.9 µM (inactive)"}, {"measurement": "GI50", "setting": "OVCAR-5", "result": "21.3 µM (inactive)"}, {"measurement": "GI50", "setting": "OVCAR-8", "result": "24 µM (inactive)"}, {"measurement": "GI50", "setting": "RPMI-8226", "result": "33.4 µM (inactive)"}, {"measurement": "GI50", "setting": "RXF 393", "result": "2.26 µM (inactive)"}, {"measurement": "GI50", "setting": "SF-268", "result": "33.3 µM (inactive)"}, {"measurement": "GI50", "setting": "SF-295", "result": "25.1 µM (inactive)"}, {"measurement": "GI50", "setting": "SK-MEL-28", "result": "21.8 µM (inactive)"}, {"measurement": "GI50", "setting": "SK-MEL-5", "result": "8.07 µM (inactive)"}, {"measurement": "GI50", "setting": "SN12C", "result": "33.8 µM (inactive)"}, {"measurement": "GI50", "setting": "SNB-19", "result": "34.5 µM (inactive)"}, {"measurement": "GI50", "setting": "SNB-78", "result": "33.5 µM (inactive)"}, {"measurement": "GI50", "setting": "SR", "result": "30 µM (inactive)"}, {"measurement": "GI50", "setting": "SW-620", "result": "33.7 µM (inactive)"}, {"measurement": "GI50", "setting": "TK-10", "result": "32.1 µM (inactive)"}, {"measurement": "GI50", "setting": "U-251", "result": "22.1 µM (inactive)"}, {"measurement": "GI50", "setting": "UACC-257", "result": "18.4 µM (inactive)"}, {"measurement": "GI50", "setting": "UO-31", "result": "23.9 µM (inactive)"}, {"measurement": "GI50", "setting": "XF498", "result": "22 µM (inactive)"}]}]}
